Laboratory results reported in patent US20060188573A1, “Composite materials and particles” (priority 2003, published 2006).

System: blood
Experiment: Blood compatibility: coagulation
Conditions: 4.0 ml blood added, circulating at 37 degrees C. for 60 minutes in heparin-coated tubes; duplicate
Procedure: The lipid/polymer hybrid particles have been characterized with respect to coagulation and hemolyse. Briefly, the experiments were carried out as follows:
Coagulation: Solvent/water mixture, with the same ratio used for particle formation, was used as negative control. Other samples were pure polymer, pure lipid, lipid/polymer composite particles and Taxol. Taxol was used as positive control. All experiments were carried out in dublicate.4.0 ml blood were added to each sample before the samples were circulating, at 37 degrees C. for 60 minutes, in tubes with the inside coated with heparin.

For `CCCCCCCC/C=C\CCCCCCCC(=O)OCC(O)CO` (stereo not shown) [pure lipid, glyceryl-mono-oleate], the coagulation was “no coagulation”.
